In experiment [1] the test system is GSK3β, active β-catenin and Snail. Kind of experiment: Western blotting of GSK3β, active β-catenin, Snail and EMT proteins in HCT116 cells. The format is cell-based, human. The following applies: HCT116. The protocol: FIGS. 4A to 4L. EpEX induces EMT and invasion by stabilizing β-catenin and Snail through decreasing GSK3β activity. (FIG. 4A) The protein expression of EMT markers and regulators was detected by Western blotting in Wild-type (WT) or EpCAM knockout (KO) HCT116 cells after EpEX treatment. (FIG. 4B) Cell invasion was examined by Transwell chamber assay with matrigel. (FIG. 4C) WT or KO HCT116 and HT29 cells were starved for 16 h, then treated with 0.5 nM of HGF with 2% FBS for 24 h. EMT-related protein expression (E-cadherin, vimentin, and Snail) was examined by Western blotting. (FIG. 4D) WT or KO HCT116 and HT29 cells were treated with HGF (0.5 nM) for 24 h. Invasion by HCT116 and HT29 cells was examined by Transwell chamber assay with matrigel. (FIG. 4E) HCT116 and HT29 cells were starved for 16 h, then treated with 0.5 nM of HGF with 2% FBS for 24 h. EMT-related protein expression (E-cadherin, Vimentin, and Snail) was examined by Western blotting. (FIG. 4F) HCT116 and HT29 cells were starved for 16 h, then treated with 0.5 nM of HGF with 2% FBS for 24 h. Cell invasion was assessed by a Transwell assay with matrigel. (FIG. 4G) HCT116 cells after shLuc and shHGFR treatment were treated with 50 nM of EpEX-His. HCT116 cells after shLuc and shHGFR treatment were treated with 50 nM of EpEX-His with 2% FBS for 24 h. EMT-related protein expression (E-cadherin, Vimentin, and Snail) was examined by Western blotting. (FIG. 4H) Cell invasion was examined by Transwell chamber assay with matrigel. (FIG. 4I) Starved HCT116 cells were treated SU (10 μM) for 1 h, followed by treatment with EpEX-His (50 nM) for 24 h. Phosphorylated GSK3β, active-β-catenin, and Snail were detected by Western blotting. (FIG. 4J) HCT116 cells were starved for 16 h, then treated with 50 nM EpEX-His for 24 min. AKT inhibitor LY294002 (25 μM), ERK inhibitor U0126 (20 μM), or PF-562271 (10 μM) were applied 1 h before EpEX treatment. Protein expression of phosphorylated GSK3β and Snail was examined by Western blotting. (FIG. 4K) HCT116 cells were starved for 16 h, then treated with 50 nM EpEX, and SU (10 μM), LY (25 μM), UO (20 μM) or PF (10 μM). Cell invasion was examined by Transwell chamber assay with matrigel. (FIG. 4L) Protein expression was analyzed by Western blotting in EpEX-His (50 nM) treated HCT116 cells after treatment with or without 2 μM GSK3β inhibitor (BIO) for 24 h. Quantification of the normalized protein expression in the right panel.
FIGS. 5A to 5I. EpEX promotes Snail protein stability through inhibition of ubiquitination-mediated proteasomal degradation. (FIG. 5A) The gene expression of EMT markers and regulators was detected by qRT-PCR in Wild-type (WT) or EpCAM knockout (KO) of HCT116 and HT29 cells. (FIG. 5B) Stability of Snail protein in WT or KO of HCT116 cells. Cells were treated with cyclohexamide (CHX) 100 μg/ml at the indicated intervals and subjected to Western blotting. (FIG. 5C) The protein expression of Snail was analyzed in WT or KO HCT116 cells by treating with or without […] MG132 (proteasome inhibitor) for 6 h, followed by Western blotting. (FIG. 5D) WT or KO HCT116 cells were treated with 10 μM MG132 for 6 h before cell collection. The lysates were subjected to immunoprecipitation using anti-Snail antibody and input. Western blotting was performed with the indicated antibodies to detect ubiquitinated Snail protein. (FIG. 5E) Stability of Snail protein in HCT116 cells after EpEX (50 nM) treatment for 24 h. Cells were treated with cyclohexamide (CHX; 100 μg/ml) for the indicated intervals and then subjected to Western blotting. (FIG. 5F) Expression of the gene encoding SNAIL was detected by qRT-PCR in HCT116 cells after EpEX (50 nM) treatment for 24 h. (FIG. 5G) The protein expression of Snail in HCT116 was analyzed cells by Western blotting after EpEX (50 nM) treatment for 24 h, and treatment with or without 10 μM MG132 (proteasome inhibitor) for 6 h. […]

The target of experiment [2] is T1, EpCAM (Homo sapiens, UniProt P16422).
T1 sequence (P16422 24-314): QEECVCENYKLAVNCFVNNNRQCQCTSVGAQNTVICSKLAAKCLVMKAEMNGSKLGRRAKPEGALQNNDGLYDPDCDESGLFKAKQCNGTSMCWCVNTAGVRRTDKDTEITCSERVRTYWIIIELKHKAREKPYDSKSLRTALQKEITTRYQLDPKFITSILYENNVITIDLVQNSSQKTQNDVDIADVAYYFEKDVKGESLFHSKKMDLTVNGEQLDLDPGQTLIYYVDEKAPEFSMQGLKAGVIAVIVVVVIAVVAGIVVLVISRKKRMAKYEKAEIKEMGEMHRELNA
The note with it: cited from earlier work.

In experiment [3] the test system is cancer cells. The note with it: comparison in the description; previous work; cited from earlier work.
The mark [4] stands for this setting: SU 10 μM 1 h, then EpEX-His 50 nM 24 h, FIG. 4I.
The mark [5] stands for this setting: LY294002 25 μM, U0126 20 μM or PF-562271 10 μM 1 h before 50 nM EpEX-His for 24 min, FIG. 4J.

We go through five molecules from patent publication US20250269018A1, “COMBINED CANCER THERAPY WITH AN EPITHELIAL CELL ADHESION MOLECULE (EPCAM) INHIBITOR AND A HEPATOCYTE GROWTH FACTOR RECEPTOR (HGFR) INHIBITOR” (ACADEMIA SINICA, priority 2021, published 2025).

Entries after “also recorded” stand apart in the source; their conditions may differ.

In the case of `Cc1[nH]c(C=C2C(=O)Nc3ccc(S(=O)(=O)N(C)c4cccc(Cl)c4)cc32)c(C)c1C(=O)N1CCN(C)CC1` (stereo in doubt) [SU11274, (3Z)-N-(3-Chlorophenyl)-3-({3,5-dimethyl-4-[(4-methylpiperazin-1-yl)carbonyl]-1H-pyrrol-2-yl}methylene)-N-methyl-2-oxo-2,3-dihydro-1H-indole-5-sulfonamide], in experiment [1] (setting [4]), the “EpEX-induced active β-catenin and Snail protein expression” value is “abolish EpEX-induced active β-catenin and Snail protein expression”; the “EpEX-mediated GSK3β activity” value was “attenuate EpEX-mediated GSK3β activity”.
As for “MT201: human anti-EpCAM antibody, adecatumumab (MT201)”, the EpCAM domains bound result in experiment [2] (other anti-EpCAM antibodies, comparison in the description) is “target only the well-described EGF I domain of EpCAM; also recorded: binding to domain I only”. For the same molecule, in experiment [3], the “inducing apoptosis of cancer cells” value was “failing to”.
For the molecule `N#CC(=C(/N)Sc1ccccc1N)/C(C#N)=C(\N)Sc1ccccc1N` [U0126], in experiment [1] (setting [5]), the “EpEX-mediated GSK3β activity” value is reported as “attenuate EpEX-mediated GSK3β activity” and the “EpEX-mediated Snail protein expression” value is reported as “attenuate”.
Taken in the same sequence, the figures for `CN(c1ncccc1CNc1nc(Nc2ccc3c(c2)CC(=O)N3)ncc1C(F)(F)F)S(C)(=O)=O` [PF-562271] were “attenuate EpEX-mediated GSK3β activity” and “attenuate”.

B1: EpAb2-6: anti-EpCAM neutralizing monoclonal antibody targeting EpEX; VH SEQ ID NO: 15, VL SEQ ID NO: 16 (antibody, listed as Homo sapiens, V domains shown)
VH: VKLQESGPELKKPGETVKISCKASGYTFTDYSMHWVKQAPGKGLKWMGWINTETGEPTYADDFKGRFAFSLETSASTAYLQINNLKNEDTATYFCARTAVYWGQGTTVTVSS
VL: DIQMTQSPSSLSASLGERVSLTCRASQEISVSLSWLQQEPDGTIKRLIYATSTLDSGVPKRFSGSRSGSDYSLTISSLESEDFVDYYCLQYASYPWTFGGGTKLEIKRADAAPTVS
On to B1, for which the “binding epitope in EpCAM” value in experiment [2] (previous study (Liao et al., 2015)) is “LYD motif”. Moreover, the “inducing apoptosis of cancer cells” value in experiment [3] is reported as “induces cancer cell apoptosis”.
